# According to patent US5536749A, “Method for attenuation of sympathetic nervous system activity or onset of migraine by selectively metabolized beta-blocking agents” (SL Pharmaceuticals, Inc., priority 1994, dated 1996):
# Test system: isoproterenolinduced tachycardia
# Assay: beta-blocking action (potency, onset and duration) in anesthetized dogs after sublingual administration
# Type: in vivo, dog
# Procedure: The procedure described by J. E. Shaffer et al. in Drug Development Research 1, 221-232 (1986) was used to assess the potency, onset and duration of beta-blocking action of the compounds of Formula I in anesthetized dogs, except that compositions of Formula I were administered sublingually to the dog instead of by intravenous infusion. Using this method the results shown below were obtained with representative compounds A and B.
# ^1 Defined as the time from sublingual dosing to the first detectable
# decrease in heart rate.
# ^2 Defined as the percent of reduction in isoproterenolinduced
# ^3 Defined as the times from sublingual dosing to the peak blockade o
# isoproterenol observed. (Isoproterenol dose every ten minuets.)
# ^4 Defined as the time from peak blockade to the decay of blockade by […]
smiles,measurement,setting,value
COC(=O)CCc1ccccc1OCC(O)CNC(C)C (stereo not drawn) [A],Peak Blockade (% Inhibition),"0.16 mpk (mg/kg), first line of Table 1, percent of reduction in isoproterenol-induced tachycardia",35 ± 6%
same,Beta-Blockade Onset,"0.16 mpk (mg/kg), first line of Table 1, time from dosing to first detectable decrease in heart rate",1 to 2 min
same,Time to Peak Blockade,"0.16 mpk (mg/kg), first line of Table 1, time from dosing to peak blockade of isoproterenol (dosed every ten minutes)",10 min
same,Time to 50% Recovery from Blockade,"0.16 mpk (mg/kg), first line of Table 1, time from peak blockade to decay of blockade by 50% of the peak",38 min
same,Peak Blockade (% Inhibition),"0.16 mpk (mg/kg), second line of Table 1, percent of reduction in isoproterenol-induced tachycardia",39 ± 2%
same,Beta-Blockade Onset,"0.16 mpk (mg/kg), second line of Table 1, time from dosing to first detectable decrease in heart rate",3 to 4 min
same,Time to Peak Blockade,"0.16 mpk (mg/kg), second line of Table 1, time from dosing to peak blockade of isoproterenol (dosed every ten minutes)",10 min
same,Time to 50% Recovery from Blockade,"0.16 mpk (mg/kg), second line of Table 1, time from peak blockade to decay of blockade by 50% of the peak",43 min
same,Peak Blockade (% Inhibition),"0.47 mpk (mg/kg), third line of Table 1, percent of reduction in isoproterenol-induced tachycardia",65 ± 4%
same,Beta-Blockade Onset,"0.47 mpk (mg/kg), third line of Table 1, time from dosing to first detectable decrease in heart rate",2 to 3 min
same,Time to Peak Blockade,"0.47 mpk (mg/kg), third line of Table 1, time from dosing to peak blockade of isoproterenol (dosed every ten minutes)",10 min
same,Time to 50% Recovery from Blockade,"0.47 mpk (mg/kg), third line of Table 1, time from peak blockade to decay of blockade by 50% of the peak",81 min
